Experimental findings from patent publication US8013018B2, “Aminoindane derivative or salt thereof” (Astellas Pharma Inc., priority 2006, dated 2011) are described below.

Molecules are shown by their SMILES. Where a name gives a salt, the structure may show the parent alone.

The target in the experiment is NMDA receptor. Put plainly: [3H] MK-801 binding test on rat brain membrane specimen. The note with it: read-out: Ki (NMDA receptor affinity). On the procedure:
1) Preparation of Specimens of Rat Meninges:
The whole brain was taken out from 30 10-week SD rats (Nippon SLC), and the cerebellum was removed from them. A 0.32 M sucrose solution was added to the part containing the cerebrum, cut in a mixer, and homogenized with a Teflon™ (trademark) homogenizer. This was centrifuged at 2800 rpm and 4° C. for 15 minutes, and the resulting supernatant was again centrifuged at 15000 g and 4° C. for 20 minutes. The pellets were suspended in 50 mM Tris-HCL (pH 7.5) containing 0.08% Triton X-100, and kept statically on ice for 30 minutes, then centrifuged at 15000 g and 4° C. for 20 minutes. The pellets were suspended in 50 mM Tris-HCl (pH 7.5) added thereto, and centrifuged at 15000 g and 4° C. for 20 minutes. 50 mM Tris-HCl (pH 7.5) was again added to the pellets, and centrifuged in the same manner as before. The pellets were suspended in 20 ml of 50 mM Tris-HCl (pH 7.5) added thereto, and homogenized with the Teflon™ (trademark) homogenizer. The membrane specimen was divided into small tubes and stored in a deep freezer (−80° C.). Before use, this was washed twice with 5 mM Tris-HCl (pH 7.5) of five times that of the membrane specimen. Its concentration was controlled at 1 mg protein/ml with 5 mM Tris-HCl (pH 7.5) added to it, and this was used for assay.
2) [^3H] MK-801 Binding Assay:
50 μl of the rat membrane specimen (1 mg protein/ml) was added to a solution of a test compound dissolved in 1 μl of DMSO.
By Ki is commonly meant a measure of affinity in units of concentration, obtained from inhibition or displacement. As for `CCC1(CC)Cc2ccccc2C1(N)c1ccccc1` (stereo not drawn) [Example 2], the Ki came to 400 nM. The value for `CNC1(c2ccccc2)c2ccccc2CC1(C)C` (stereo not drawn) [Example 10, N,2,2-trimethyl-1-phenylindan-1-amine hydrochloride] was 400 nM. Regarding `CC1(C)Cc2ccccc2C1(N)c1ccc(F)cc1` (stereo not drawn) [Example 17, 1-(4-Fluorophenyl)-2,2-dimethylindan-1-amine monofumarate], the inhibitory constant (Ki) is 800 nM. For `COc1ccccc1C1(N)c2ccccc2CC1(C)C` (stereo not drawn) [Example 18, 1-(2-Methoxyphenyl)-2,2-dimethylindan-1-amine hydrochloride] the value was 300 nM; for `CC1(C)Cc2ccccc2C1(N)c1cccc(O)c1` (stereo not drawn) [Example 21, 1-(3-Hydroxyphenyl)-2,2-dimethylindan-1-amine], 100 nM. `CC1(C)Cc2ccccc2C1(C)N` (stereo not drawn) [Example 23, 1,2,2-Trimethylindan-1-amine hydrochloride]: the Ki was determined as 900 nM. The value for `Cc1ccc2c(c1)C(C)(N)C(C)(C)C2` (stereo not drawn) [Example 36, 1,2,2,6-Tetramethylindan-1-amine hydrochloride] was 400 nM; that for `COc1ccc2c(c1)C(C)(N)C(C)(C)C2` (stereo not drawn) [Example 38, 6-Methoxy-1,2,2-trimethylindan-1-amine hydrochloride] was 300 nM; that for `CC1(C)Cc2ccc(F)cc2C1(C)N` (stereo not drawn) [Example 41, 6-Fluoro-1,2,2-trimethylindan-1-amine hydrochloride] was 800 nM. For `CC1(C)Cc2ccc(Br)cc2C1(C)N` (stereo not drawn) [Example 42, 6-Bromo-1,2,2,-trimethylindan-1-amine hydrochloride] the value was 300 nM; for `CC1(C)Cc2ccc(C(F)(F)F)cc2C1(C)N` (stereo not drawn) [Example 43, 6-Trifluoromethyl-1,2,2-trimethylindan-1-amine hydrochloride], 300 nM; for `CC1(C)Cc2ccc(C#N)cc2C1(C)N` (stereo not drawn) [Example 44, 6-Cyano-1,2,2-trimethylindan-1-amine hydrochloride], 600 nM.

For `CC1(C)Cc2cccc(F)c2C1(C)N` (stereo not drawn) [Example 48, 7 Fluoro-1,2,2-trimethylindan-1-amine hydrochloride], the Ki was 600 nM. For `CCC1(N)c2cccc(C)c2CC1(C)C` (stereo not drawn) [Example 59] the value was 900 nM; for `CCCCC1(N)c2ccccc2CC1(C)C` (stereo not drawn) [Example 61], 500 nM.
